The results in this text go back to ChEMBL document CHEMBL1201862, “PubChem BioAssay data set” (2004).

Some test systems named below: SK-MEL-2; 786-0; SF-295; OVCAR-4; SK-MEL-28; HCC 2998; IGROV-1; MDA-MB-231; SF-268; COLO 205; HCT-116; MDA-MB-435; UO-31; PC-3; MDA-N; M14; U-251; UACC-257; HL-60.
Test in all cases: inhibition of tumour cell growth, NCI panel, 48 h

Molecules are shown by their SMILES.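 Following 48 hours of exposure in 96-well plates, responses at five concentrations were used to interpolate endpoints linearly. GI50 = concentration required for 50% inhibition of growth.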 Activity calls are given as the source filed them. Cut-off read from the data, not from the text of the source: active = GI50 up to about 1.1 µM and inactive = higher. Where a SMILES comes first, the peptide text is derived from it. [ ]: non-standard residue; d: D form. Aoe = N[C@@H](CCCCCC(=O)[C@@H]1CO1)C(=O)O Some results are limits rather than exact numbers.

For the compound `O=C1N[C@@H](Cc2ccccc2)C(=O)N2CCC[C@@H]2C(=O)N[C@@H](CCCCCC(=O)[C@@H]2CO2)C(=O)N[C@H]1Cc1ccccc1` [TRAPOXIN B] (cyclo(FF[dP][Aoe])), the GI50 in the test on SK-MEL-2 is 0.00116 µM (active); in the test with 786-0, 0.00294 µM (active); in the test on SF-295 it was 0.0145 µM (active); in the test with OVCAR-4, 0.221 µM (active); with SK-MEL-28, 0.000713 µM (active); in the test with HCC 2998 it was 0.0343 µM (active). Also, the GI50 with IGROV-1 was 0.019 µM (active); with MDA-MB-231, 0.161 µM (active); in the test with SF-268, 0.0119 µM (active); in the test on COLO 205 it was 0.000778 µM (active); in the test with HCT-116 it was 0.000256 µM (active); with MDA-MB-435, 0.000546 µM (active). Also, the GI50 was 0.00209 µM (active) in the test with UO-31; 0.00209 µM (active) in the test with PC-3; 0.000512 µM (active) with MDA-N; 0.000597 µM (active) with M14; 0.0027 µM (active) in the test on U-251.

Turning to `Cc1ccc(-n2cc([Si](C)(C)C)nn2)s1`, the GI50 with SK-MEL-2, in the test on 786-0, with SF-295, in the test on OVCAR-4, in the test with UACC-257 and in the test on SK-MEL-28 was > 100 µM (inactive) throughout. In addition, the GI50 in the test on HCC 2998 is 81.3 µM (inactive); with MDA-MB-231, > 100 µM (inactive); with SF-268 it was > 100 µM (inactive); with COLO 205, 61.8 µM (inactive); in the test with HCT-116 it was > 100 µM (inactive); in the test with MDA-MB-435, > 100 µM (inactive). Moreover, the GI50 is 84.3 µM (inactive) in the test with UO-31; 97.5 µM (inactive) with PC-3; > 100 µM (inactive) in the test with MDA-N; > 100 µM (inactive) with M14; > 100 µM (inactive) in the test with U-251.

Regarding `COC(=O)c1c(-c2ccc(Cl)cc2)cc2c3ccccc3n(C)c2c1C(=O)OC`, the GI50 in the test on SK-MEL-2 was > 100 µM (inactive); in the test on 786-0 it was > 100 µM (inactive); in the test on HL-60, 26.8 µM (inactive); in the test with SF-295 it was > 100 µM (inactive); with OVCAR-4, > 100 µM (inactive); with UACC-257, 64.7 µM (inactive). Also, the GI50 in the test with SK-MEL-28, in the test on IGROV-1, in the test on MDA-MB-231, in the test with SF-268, with COLO 205 and in the test on HCT-116 was > 100 µM (inactive) in each case. Also, the GI50 in the test with MDA-MB-435 is > 100 µM (inactive); with UO-31 it was 2.47 µM (inactive); in the test with PC-3, > 100 µM (inactive); with MDA-N, > 100 µM (inactive); in the test on M14, > 100 µM (inactive); in the test on U-251, > 100 µM (inactive).

Take `CCN(CCC#N)C(=O)Nc1ccccc1`: the GI50 in the test on SK-MEL-2, in the test on 786-0, in the test with SF-295, in the test with OVCAR-4, with UACC-257 and with SK-MEL-28 was > 100 µM (inactive) each time. For the same compound, the GI50 in the test on HCC 2998, in the test on IGROV-1, in the test on MDA-MB-231, in the test on COLO 205, in the test with HCT-116 and with MDA-MB-435 was > 100 µM (inactive) each time. Moreover, the GI50 with UO-31, in the test with PC-3, in the test with MDA-N, in the test on M14 and in the test with U-251 was > 100 µM (inactive) each time.
